The source of these data is PubChem BioAssay (NCI).

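Assay format: 96-well plates, 48-hour exposure. GI50: concentration for 50% inhibition of growth. At the TGI there is no net growth.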

Common to all, as to experiment: DTP human tumour cell line panel, 48 h
For experiment [1], the system named is NCI-H460 lung.
The subject of experiment [2] is SR leukemia.
Experiment [3] relates to HOP-92 NSCLC.
The subject of experiment [4] is OVCAR-3 ovarian.
The test system of experiment [5] is U251 CNS.
Experiment [6] has as its system 786-0 renal.
Experiment [7] deals with HCT-116 colon.
In experiment [8] the test system is SK-OV-3 ovarian.
Experiment [9] concerns TK-10 renal.
Experiment [10] concerns T-47D breast.

What is called TGI is the concentration at which net growth stops. Lower therefore signals more potent growth arrest. By GI50 is commonly meant the concentration giving 50% growth inhibition.

On to `N#CCc1cccc(CC#N)c1Br`, for which the TGI in [1], in experiment [2], in experiment [3], in [4], in experiment [5] and in [6] was above 100 µM in each case. Besides, the TGI in [7] and in [8] was above 100 µM each time.

Turning to `CC1(C)OC(=O)C(=C2CCC(C(=O)Nc3cccc(C(F)(F)F)c3)N2)C(=O)O1` (centres undefined), the TGI in experiment [1], in experiment [9], in experiment [3], in experiment [4], in experiment [5] and in experiment [6] was above 100 µM each time. For the same compound, the TGI in experiment [7] and in [8] was above 100 µM each time.

As to `CC(C)OP(=O)(O)c1ncc(-c2ccc(C(F)(F)F)cc2)c(NC2CCCCCC2)n1`, the GI50 in experiment [1] is above 100 µM; in [9], above 100 µM; in [4], 87 µM; in experiment [5], 77.9 µM; in experiment [6], above 100 µM; in experiment [7], above 100 µM. The values for the GI50 in experiment [10] and in experiment [8] were 34.9 µM and above 100 µM, respectively. Besides, the TGI in experiment [1], in experiment [9], in [4], in experiment [5], in experiment [6] and in experiment [7] was above 100 µM in each case. The TGI in experiment [10] and in experiment [8] was above 100 µM in each case.

Consider `COc1cc2c(c(OC)c1OC)C(=O)NCCC2`, for which the TGI in experiment [1], in experiment [9], in experiment [2], in experiment [3], in [4] and in experiment [5] was above 100 µM in each case. In addition, the TGI in experiment [6], in [7] and in experiment [8] was above 100 µM in each case.

With `CN(C)CCN1CCc2c([nH]c3ccccc23)C1c1cccnc1` (centres undefined), the TGI in [1], in experiment [9], in experiment [2], in [3], in [4] and in experiment [5] was above 100 µM in each case. For the same compound, the TGI in [6], in experiment [7] and in experiment [8] was above 100 µM throughout.

Take `COc1ccc(/C=C\c2cc(OC)c(OC)c(OC)c2)cc1`: the TGI was 15.6 µM in experiment [1]; 78.7 µM in [2]; 0.000152 µM in [4]; 1.25 µM in [5]; above 100 µM in [6]; above 100 µM in experiment [7]. Also, the TGI in experiment [8] was above 100 µM. The GI50 in experiment [8] was 99.3 µM.

With `COc1ccc(/C=N/NS(=O)(=O)c2ccccc2)cc1`, the TGI in [1], in experiment [9], in experiment [2], in experiment [3], in experiment [4] and in experiment [5] was above 100 µM throughout. The total growth inhibition concentration (TGI) in [6], in [7] and in experiment [8] was above 100 µM each time.

`Cc1ccc(S(=O)C(C)C(Cl)c2ccccc2)cc1` (centres undefined): the TGI in experiment [1], in experiment [9], in [2], in experiment [3], in experiment [4] and in experiment [5] was above 100 µM each time. In addition, the TGI in experiment [6], in experiment [7] and in [8] was above 100 µM in each case.

For the compound `CCOC1Oc2ccc(C)cc2C(=O)/C1=C\Nc1ccc(S(N)(=O)=O)cc1` (centres undefined), the GI50 in [1] was 17 µM; in experiment [9], 15.7 µM; in [2], 9.23 µM; in [3], 8.9 µM; in [4], 12.5 µM; in [5], 12.9 µM. Further, the GI50 in experiment [6] is 6.88 µM; in [7] it was 6.62 µM; in experiment [8], 17.7 µM. Besides, the TGI in experiment [1] was above 50 µM; in [9], above 50 µM; in experiment [2] it was above 50 µM; in experiment [3], 29.6 µM; in experiment [4] it was 36.5 µM; in experiment [5], above 50 µM. Besides, the TGI is 13.6 µM in [6], 14.9 µM in experiment [7] and above 50 µM in [8].

Turning to `CN(C)c1ccc(C(O)C2=CC(=O)c3ccccc3C2=O)cc1` (centres undefined), the GI50 in experiment [1] was 51.9 µM; in experiment [9], 12.1 µM; in experiment [2], 1.88 µM; in experiment [3] it was 1.56 µM; in experiment [4] it was 2.75 µM; in experiment [5] it was 1.74 µM. Moreover, the figures for the GI50 in [6], in experiment [7] and in [8] were 14.4 µM, 17.8 µM and 3.07 µM, respectively. For the same compound, the TGI is above 100 µM in [1]; 44.3 µM in experiment [9]; 4.49 µM in experiment [2]; 4.16 µM in experiment [3]; above 100 µM in experiment [5]; 34.6 µM in experiment [6]. For the same compound, the results for the TGI in experiment [7] and in [8] were 37 µM and 15.5 µM, respectively.

In the case of `Nc1ccccc1C#Cc1ccccc1C#Cc1cccs1`, the GI50 in experiment [1] is 37.3 µM; in experiment [3], 5.87 µM; in [4], 13.1 µM; in [5], 13.6 µM; in [6], 16.3 µM; in experiment [7], 12.8 µM. Moreover, the GI50 in experiment [8] is 32.7 µM. The TGI was above 100 µM in experiment [1]; 22.2 µM in experiment [3]; 26.4 µM in experiment [4]; 27.3 µM in experiment [5]; 31 µM in experiment [6]; 25.4 µM in [7]. The compound also returned a TGI in [8] above 100 µM.

Consider `CCCCC1(C(NC(=O)c2ccccc2Cl)c2ccncc2)C(=O)N(c2ccccc2)N(c2ccccc2)C1=O` (centres undefined), for which the TGI in experiment [1] is above 100 µM; in experiment [9], above 100 µM; in experiment [2] it was 93.9 µM; in experiment [3], above 100 µM; in experiment [4] it was above 100 µM; in [5], above 100 µM. Further, the TGI in experiment [6], in [7] and in [8] was above 100 µM in each case.
